From US9353090B2, “Heterocyclic carboxylic acids as activators of soluble guanylate cyclase” (Boehringer Ingelheim International GmbH, priority 2014, dated 2016)
Converted amounts (≈) assume the structure as drawn.

Assays:
[1] = molecular target: human soluble guanylate cyclase alpha 1 and beta 1 subunits (sGC) (Homo sapiens (Human), UniProt Q02108+Q02153); assay: sGC cellular activator assay (cGMP, HTRF), in the presence and absence of 50% human serum; type: cell-based; settings: CHO cells stably expressing human sGC alpha 1/beta 1, preincubated with 40 microM ODQ; cGMP by HTRF; Table 2 does not state whether with or without 50% human serum
Chain of human soluble guanylate cyclase alpha 1 and beta 1 subunits (sGC) (Q02108 whole entry partner): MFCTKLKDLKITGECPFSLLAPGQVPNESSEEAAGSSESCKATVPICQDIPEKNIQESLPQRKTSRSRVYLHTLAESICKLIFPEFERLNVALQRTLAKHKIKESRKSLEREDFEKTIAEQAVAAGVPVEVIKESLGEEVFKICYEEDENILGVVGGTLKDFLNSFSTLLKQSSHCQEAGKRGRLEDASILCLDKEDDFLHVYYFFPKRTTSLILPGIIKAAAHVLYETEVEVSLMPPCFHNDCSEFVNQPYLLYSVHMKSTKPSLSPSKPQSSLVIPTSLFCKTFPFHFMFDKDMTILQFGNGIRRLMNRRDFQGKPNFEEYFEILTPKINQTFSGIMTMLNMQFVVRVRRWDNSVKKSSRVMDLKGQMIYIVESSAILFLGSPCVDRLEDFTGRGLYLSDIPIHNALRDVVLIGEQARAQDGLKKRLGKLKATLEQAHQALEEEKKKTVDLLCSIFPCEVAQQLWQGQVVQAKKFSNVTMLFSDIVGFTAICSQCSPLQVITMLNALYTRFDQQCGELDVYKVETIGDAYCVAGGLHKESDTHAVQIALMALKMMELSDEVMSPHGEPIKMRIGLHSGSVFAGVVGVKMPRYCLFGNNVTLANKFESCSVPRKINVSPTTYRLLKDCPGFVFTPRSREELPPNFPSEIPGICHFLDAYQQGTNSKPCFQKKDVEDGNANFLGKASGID
Chain of human soluble guanylate cyclase alpha 1 and beta 1 subunits (sGC) (Q02153 whole entry): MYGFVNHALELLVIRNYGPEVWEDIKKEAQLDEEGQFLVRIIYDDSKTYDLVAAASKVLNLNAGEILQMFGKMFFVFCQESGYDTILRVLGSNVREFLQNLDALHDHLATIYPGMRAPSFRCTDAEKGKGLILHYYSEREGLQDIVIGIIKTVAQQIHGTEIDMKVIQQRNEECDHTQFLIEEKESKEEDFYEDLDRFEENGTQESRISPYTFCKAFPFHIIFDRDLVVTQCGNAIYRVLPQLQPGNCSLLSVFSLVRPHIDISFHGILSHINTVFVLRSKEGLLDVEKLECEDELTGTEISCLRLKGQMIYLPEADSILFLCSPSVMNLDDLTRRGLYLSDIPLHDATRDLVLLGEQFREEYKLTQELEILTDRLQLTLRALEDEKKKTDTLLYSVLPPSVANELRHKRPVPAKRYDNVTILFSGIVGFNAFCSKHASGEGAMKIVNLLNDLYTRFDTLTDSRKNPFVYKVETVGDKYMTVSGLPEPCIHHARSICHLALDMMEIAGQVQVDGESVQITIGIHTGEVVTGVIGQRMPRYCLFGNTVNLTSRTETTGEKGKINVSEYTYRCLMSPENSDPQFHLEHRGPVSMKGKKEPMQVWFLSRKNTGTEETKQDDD
How it was run: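 First, CHO-sGC (human α1β1) cells get 1 h ODQ at 40 microM with IBMX and 0.1% BSA. Finally, cGMP is quantified by HTRF and EC50 computed.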

[2] = Human liver microsome (HLM) metabolic stability assay; type: in vitro ADME; settings: human liver microsomes
How it was run: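 Remaining parent measured by LC/MS/MS (ESI, MRM) at 5, 15, 30 and 60 min relative to 0 min. Incubation: 1 uM compound, HLMs, NADPH-started, 37° C., 60 min total, single replicate. Slope of ln(% remaining) gives t1/2 = 0.693/slope, then CLint, CLh and % Qh.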

[3] = physchem; settings: kinetic from dmso stock
[4] = pH 2.2, aqueous buffer, Solubility (pH 2.2)
[5] = pH 4.5, aqueous buffer, Solubility (pH 4.5)
[6] = pH 6.8, aqueous buffer, Solubility (pH 6.8)

| Structure (SMILES) | EC50 [1] [nM] | Metabolic stability (Qh %), % hepatic blood flow [2] [%] | solubility at 24 h [3, 4] [µg/mL] | solubility at 24 h [3, 5] [µg/mL] | solubility at 24 h [3, 6] [µg/mL] |
| --- | --- | --- | --- | --- | --- |
| Cc1cccc(-c2csc(N3CC[C@@]4(C(=O)O)C[C@H]4C3)n2)c1OCc1ccc2c(c1)CCN(C1COC1)C2 [Compound 85] | 28 | 29 | 120 (≈ 226 µM) | 52 (≈ 97.8 µM) | 55 (≈ 103 µM) |
| Cc1cccc(-c2csc(N3CC[C@@]4(C(=O)O)C[C@H]4C3)n2)c1OCc1ccc2c(c1C)CCN(CC1COCCO1)C2 (stereo partly drawn) [Compound 86] | 2 | 41 | 120 (≈ 203 µM) | 71 (≈ 120 µM) | 57 (≈ 96.6 µM) |
| Cc1cccc(-c2csc(N3CC[C@@]4(C(=O)O)C[C@H]4C3)n2)c1OCc1ccc2c(c1C)CCN(C1CCCOC1)C2 (stereo partly drawn) [Compound 87] | 2 | 55 | 120 (≈ 209 µM) | 67 (≈ 117 µM) | 28 (≈ 48.8 µM) |
| Cc1cccc(-c2csc(N3CC[C@@]4(C(=O)O)C[C@H]4C3)n2)c1OCc1ccc2c(c1C)CCN(C1CCOC1)C2 (stereo partly drawn) [Compound 88] | 4 | 43 | 120 (≈ 214 µM) | 69 (≈ 123 µM) | 48 (≈ 85.8 µM) |
| Cc1cc(COc2c(C)cccc2-c2csc(N3CC[C@@]4(C(=O)O)C[C@H]4C3)n2)cc2c1CN(CC1COCCO1)CC2 (stereo partly drawn) [Compound 91] | 3 | <24 | 120 (≈ 203 µM) | 68 (≈ 115 µM) | 41 (≈ 69.5 µM) |
| Cc1cc(COc2c(C)cccc2-c2csc(N3CC[C@@]4(C(=O)O)C[C@H]4C3)n2)cc2c1CN(C1CCCOC1)CC2 (stereo partly drawn) [Compound 94] | 3 | 42 | 120 (≈ 209 µM) | 55 (≈ 95.9 µM) | 19 (≈ 33.1 µM) |
| Cc1cc(COc2c(C)cccc2-c2csc(N3CC[C@@]4(C(=O)O)C[C@H]4C3)n2)cc2c1CN(C1CCOC1)CC2 (stereo partly drawn) [Compound 95] | 2 | 49 | 120 (≈ 214 µM) | 66 (≈ 118 µM) | 31 (≈ 55.4 µM) |
| Cc1cc(COc2c(C)cccc2-c2csc(N3CC[C@@]4(C(=O)O)C[C@H]4C3)n2)cc2c1CN(C1CCOCC1)CC2 [Compound 96] | 2 | 33 | 120 (≈ 209 µM) | 68 (≈ 119 µM) | 52 (≈ 90.6 µM) |
| Cc1cc(COc2c(C)cccc2-c2csc(N3CC[C@@]4(C(=O)O)C[C@H]4C3)n2)c(C)c2c1CN(CC1COCCO1)CC2 (stereo partly drawn) [Compound 98] | 1 | 48 | 120 (≈ 199 µM) | 75 (≈ 124 µM) | 31 (≈ 51.3 µM) |
| Cc1cc(COc2c(C)cccc2-c2csc(N3CC[C@@]4(C(=O)O)C[C@H]4C3)n2)c(C)c2c1CN(C1CCCOC1)CC2 (stereo partly drawn) [Compound 99] | 3 | 59 | 120 (≈ 204 µM) | 69 (≈ 117 µM) | 14 (≈ 23.8 µM) |
| Cc1cc(COc2c(C)cccc2-c2csc(N3CC[C@@]4(C(=O)O)C[C@H]4C3)n2)c(C)c2c1CN(C1CCOC1)CC2 (stereo partly drawn) [Compound 100] | 3 | 55 | 130 (≈ 227 µM) | 68 (≈ 119 µM) | 27 (≈ 47.1 µM) |
| Cc1cc(COc2c(C)cccc2-c2csc(N3CC[C@@]4(C(=O)O)C[C@H]4C3)n2)c(C)c2c1CN(C1CCOCC1)CC2 [Compound 101] | 3 | 61 | 120 (≈ 204 µM) | 79 (≈ 134 µM) | 38 (≈ 64.6 µM) |
| Cc1cc(COc2c(C)cccc2-c2csc(N3CC[C@@]4(C(=O)O)C[C@H]4C3)n2)c(C)c2c1CN(C1COC1)CC2 [Compound 102] | 3 | 52 | 130 (≈ 232 µM) | 41 (≈ 73.2 µM) | 54 (≈ 96.5 µM) |
| Cc1cccc(-c2csc(N3CC[C@@]4(C(=O)O)C[C@H]4C3)n2)c1OCc1ccc2c(c1C)CCN(C1CCOC1)CC2 (stereo partly drawn) [Compound 106] | 5 | 39 | 130 (≈ 227 µM) | 66 (≈ 115 µM) | 44 (≈ 76.7 µM) |
| Cc1ccc(OCc2ccc3c(c2)CCN(C2CCOCC2)C3)c(-c2csc(N3CC[C@@]4(C(=O)O)C[C@H]4C3)n2)c1 [Compound 110] | 17 | <24 | 110 (≈ 197 µM) | 54 (≈ 96.5 µM) | 0.58 (≈ 1.04 µM) |
| Cc1ccc(OCc2ccc3c(c2)CCN(CC2COCCO2)C3)c(-c2csc(N3CC[C@@]4(C(=O)O)C[C@H]4C3)n2)c1 (stereo partly drawn) [Compound 112] | 2 | <24 | 120 (≈ 208 µM) | 55 (≈ 95.5 µM) | 8.1 (≈ 14.1 µM) |
| Cc1ccc(OCc2ccc3c(c2)CCN(C2CCCOC2)C3)c(-c2csc(N3CC[C@@]4(C(=O)O)C[C@H]4C3)n2)c1 (stereo partly drawn) [Compound 113] | 5 | <24 | 130 (≈ 232 µM) | 36 (≈ 64.3 µM) | 2.7 (≈ 4.82 µM) |
| Cc1ccc(OCc2ccc3c(c2)CCN(C2CCOC2)C3)c(-c2csc(N3CC[C@@]4(C(=O)O)C[C@H]4C3)n2)c1 (stereo partly drawn) [Compound 114] | 7 | <24 | 120 (≈ 220 µM) | 38 (≈ 69.6 µM) | 5 (≈ 9.16 µM) |
| Cc1ccc(OCc2ccc3c(c2C)CCN(C2CCOCC2)C3)c(-c2csc(N3CC[C@@]4(C(=O)O)C[C@H]4C3)n2)c1 [Compound 115] | 11 | <24 | 130 (≈ 227 µM) | 36 (≈ 62.7 µM) | 5.1 (≈ 8.89 µM) |
| Cc1ccc(OCc2ccc3c(c2C)CCN(C2COC2)C3)c(-c2csc(N3CC[C@@]4(C(=O)O)C[C@H]4C3)n2)c1 [Compound 116] | 35 | <24 | 140 (≈ 257 µM) | 11 (≈ 20.2 µM) | 6 (≈ 11 µM) |
| Cc1ccc(OCc2ccc3c(c2C)CCN(CC2COCCO2)C3)c(-c2csc(N3CC[C@@]4(C(=O)O)C[C@H]4C3)n2)c1 (stereo partly drawn) [Compound 117] | 2 | 27 | 120 (≈ 203 µM) | 42 (≈ 71.2 µM) | 3.4 (≈ 5.77 µM) |
| Cc1ccc(OCc2ccc3c(c2C)CCN(C2CCCOC2)C3)c(-c2csc(N3CC[C@@]4(C(=O)O)C[C@H]4C3)n2)c1 (stereo partly drawn) [Compound 118] | 4 | 34 | 120 (≈ 209 µM) | 21 (≈ 36.6 µM) | < 0.1 |
| Cc1ccc(OCc2ccc3c(c2C)CCN(C2CCOC2)C3)c(-c2csc(N3CC[C@@]4(C(=O)O)C[C@H]4C3)n2)c1 (stereo partly drawn) [Compound 119] | 3 | <24 | 120 (≈ 214 µM) | 18 (≈ 32.2 µM) | 1.3 (≈ 2.32 µM) |
| Cc1ccc(OCc2cc(C)c3c(c2)CCN(CC2COCCO2)C3)c(-c2csc(N3CC[C@@]4(C(=O)O)C[C@H]4C3)n2)c1 (stereo partly drawn) [Compound 120] | 6 | <24 | 130 (≈ 220 µM) | 27 (≈ 45.8 µM) | 2.2 (≈ 3.73 µM) |
